Measured values: ChEMBL document CHEMBL5465560, “Selectivity Literature for EUbOPEN Chemogenomic Library” (2024)

How the values were obtained:
[1] = target: Serine/threonine-protein kinase N1 (Homo sapiens, UniProt Q16512); assay: Selectivity interaction (KinomeScan (DiscoverX)) EUB0000229b PKN1; conditions: at 10 µM
[2] = target: LIM domain kinase 1 (Homo sapiens) (UniProt P53667); assay: Selectivity interaction (KinomeScan (DiscoverX)) EUB0000092b LIMK1; conditions: at 10 µM
[3] = target: Ephrin type-A receptor 2 (Homo sapiens) (UniProt P29317); assay: Selectivity interaction (ProQinase) EUB0000171b EPHA2
[4] = target: Ribosomal protein S6 kinase beta-2 (Homo sapiens) (UniProt Q9UBS0); assay: Selectivity interaction (ProQinase) EUB0000171b RPS6KB2
[5] = target: Mitogen-activated protein kinase kinase kinase 1 (Homo sapiens, UniProt Q13233); assay: Selectivity interaction (KinomeScan (DiscoverX)) EUB0001079a MAP3K1; conditions: at 1 µM
[6] = target: T1, Ephrin type-A receptor 6 (Homo sapiens) (UniProt Q9UF33); assay: Selectivity interaction (KinomeScan (DiscoverX)) EUB0001079a EPHA6; conditions: at 1 µM
T1 sequence (whole entry): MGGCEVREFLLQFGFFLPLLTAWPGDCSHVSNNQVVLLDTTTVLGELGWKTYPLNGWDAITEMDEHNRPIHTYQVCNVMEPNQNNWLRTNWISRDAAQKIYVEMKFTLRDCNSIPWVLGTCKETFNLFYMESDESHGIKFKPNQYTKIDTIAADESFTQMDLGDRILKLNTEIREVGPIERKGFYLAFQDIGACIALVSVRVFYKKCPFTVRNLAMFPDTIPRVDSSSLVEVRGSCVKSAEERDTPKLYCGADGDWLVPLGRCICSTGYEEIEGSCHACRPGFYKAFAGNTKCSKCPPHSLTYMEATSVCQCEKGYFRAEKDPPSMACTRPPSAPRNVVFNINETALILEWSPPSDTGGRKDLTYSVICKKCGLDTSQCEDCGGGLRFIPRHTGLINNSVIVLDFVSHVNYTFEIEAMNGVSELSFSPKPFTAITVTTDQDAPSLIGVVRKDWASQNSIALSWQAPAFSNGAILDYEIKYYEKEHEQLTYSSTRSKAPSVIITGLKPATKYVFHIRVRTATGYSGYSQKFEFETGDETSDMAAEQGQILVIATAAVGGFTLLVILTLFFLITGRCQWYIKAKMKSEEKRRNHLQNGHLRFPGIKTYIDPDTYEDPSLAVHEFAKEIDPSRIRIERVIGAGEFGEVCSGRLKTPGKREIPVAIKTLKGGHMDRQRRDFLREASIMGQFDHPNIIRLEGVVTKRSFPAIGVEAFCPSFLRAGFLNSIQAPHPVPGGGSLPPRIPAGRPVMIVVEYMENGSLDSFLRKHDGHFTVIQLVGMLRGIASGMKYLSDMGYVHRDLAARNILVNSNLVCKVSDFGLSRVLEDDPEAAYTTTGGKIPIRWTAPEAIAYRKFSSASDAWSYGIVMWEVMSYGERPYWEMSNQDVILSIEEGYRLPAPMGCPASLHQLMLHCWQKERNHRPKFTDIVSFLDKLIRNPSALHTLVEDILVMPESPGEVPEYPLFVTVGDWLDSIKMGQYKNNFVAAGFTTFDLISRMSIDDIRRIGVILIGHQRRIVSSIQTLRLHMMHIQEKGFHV

[7] = target: Tyrosine-protein kinase receptor UFO (Homo sapiens) (UniProt P30530); assay: Selectivity interaction (Millipore kinase profiler) EUB0000124b AXL; conditions: at 10 µM
[8] = system: Proto-oncogene tyrosine-protein kinase receptor Ret (Homo sapiens), P07949 [V804M]; assay: Selectivity interaction (KinomeScan (DiscoverX)) EUB0000311b RET; conditions: at 1 µM
[9] = target: G protein-coupled receptor kinase 5 (Homo sapiens, UniProt P34947); assay: Selectivity interaction (Kinase panel (Invitrogen)) EUB0000639a GRK5; conditions: at 200 nM
[10] = target: T2, Aurora kinase C (Homo sapiens) (UniProt Q9UQB9); assay: Selectivity interaction (Kinase panel (Invitrogen)) EUB0000639a AURKC; conditions: at 200 nM
T2 sequence (whole entry): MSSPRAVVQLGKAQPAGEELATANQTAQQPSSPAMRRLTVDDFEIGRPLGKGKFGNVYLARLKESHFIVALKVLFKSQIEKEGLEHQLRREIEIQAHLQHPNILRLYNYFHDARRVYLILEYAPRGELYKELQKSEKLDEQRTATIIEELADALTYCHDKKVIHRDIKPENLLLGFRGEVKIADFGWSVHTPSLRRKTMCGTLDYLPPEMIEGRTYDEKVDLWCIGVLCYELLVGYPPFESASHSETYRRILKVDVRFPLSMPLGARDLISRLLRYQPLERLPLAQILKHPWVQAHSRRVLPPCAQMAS

[11] = target: T3, Muscarinic acetylcholine receptor M1 (Homo sapiens) (UniProt P11229); assay: Selectivity interaction (Panel of kinases, GPCRs, ion channels and transporters (enzymatic assay)) EUB0000223bCl CHRM1
T3 sequence (whole entry): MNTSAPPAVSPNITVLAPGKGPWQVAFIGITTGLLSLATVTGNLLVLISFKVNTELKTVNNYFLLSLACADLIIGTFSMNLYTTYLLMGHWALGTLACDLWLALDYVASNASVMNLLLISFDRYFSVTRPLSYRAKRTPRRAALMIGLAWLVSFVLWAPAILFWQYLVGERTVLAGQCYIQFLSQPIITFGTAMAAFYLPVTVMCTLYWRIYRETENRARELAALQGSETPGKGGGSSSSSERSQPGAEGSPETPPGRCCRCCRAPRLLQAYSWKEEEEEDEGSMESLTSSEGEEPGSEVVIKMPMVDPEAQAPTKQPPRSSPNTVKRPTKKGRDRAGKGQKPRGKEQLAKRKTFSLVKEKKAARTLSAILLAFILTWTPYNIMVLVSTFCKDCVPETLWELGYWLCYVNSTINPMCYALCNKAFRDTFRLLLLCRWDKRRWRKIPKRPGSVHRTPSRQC

[12] = target: Acetylcholine receptor subunit alpha (Homo sapiens, UniProt P02708); assay: Selectivity interaction (Panel of kinases, GPCRs, ion channels and transporters (enzymatic assay)) EUB0000223bCl CHRNA1
[13] = target: Leukocyte tyrosine kinase receptor (Homo sapiens, UniProt P29376); assay: Selectivity interaction (KinomeScan (DiscoverX)) EUB0000607a LTK; conditions: at 10 µM
[14] = target: Homeodomain-interacting protein kinase 2 (Homo sapiens, UniProt Q9H2X6); assay: Selectivity interaction (KinomeScan (DiscoverX)) EUB0001619a HIPK2; conditions: at 1 µM

Chain of Ephrin type-A receptor 2 (Homo sapiens) (P29317 whole entry): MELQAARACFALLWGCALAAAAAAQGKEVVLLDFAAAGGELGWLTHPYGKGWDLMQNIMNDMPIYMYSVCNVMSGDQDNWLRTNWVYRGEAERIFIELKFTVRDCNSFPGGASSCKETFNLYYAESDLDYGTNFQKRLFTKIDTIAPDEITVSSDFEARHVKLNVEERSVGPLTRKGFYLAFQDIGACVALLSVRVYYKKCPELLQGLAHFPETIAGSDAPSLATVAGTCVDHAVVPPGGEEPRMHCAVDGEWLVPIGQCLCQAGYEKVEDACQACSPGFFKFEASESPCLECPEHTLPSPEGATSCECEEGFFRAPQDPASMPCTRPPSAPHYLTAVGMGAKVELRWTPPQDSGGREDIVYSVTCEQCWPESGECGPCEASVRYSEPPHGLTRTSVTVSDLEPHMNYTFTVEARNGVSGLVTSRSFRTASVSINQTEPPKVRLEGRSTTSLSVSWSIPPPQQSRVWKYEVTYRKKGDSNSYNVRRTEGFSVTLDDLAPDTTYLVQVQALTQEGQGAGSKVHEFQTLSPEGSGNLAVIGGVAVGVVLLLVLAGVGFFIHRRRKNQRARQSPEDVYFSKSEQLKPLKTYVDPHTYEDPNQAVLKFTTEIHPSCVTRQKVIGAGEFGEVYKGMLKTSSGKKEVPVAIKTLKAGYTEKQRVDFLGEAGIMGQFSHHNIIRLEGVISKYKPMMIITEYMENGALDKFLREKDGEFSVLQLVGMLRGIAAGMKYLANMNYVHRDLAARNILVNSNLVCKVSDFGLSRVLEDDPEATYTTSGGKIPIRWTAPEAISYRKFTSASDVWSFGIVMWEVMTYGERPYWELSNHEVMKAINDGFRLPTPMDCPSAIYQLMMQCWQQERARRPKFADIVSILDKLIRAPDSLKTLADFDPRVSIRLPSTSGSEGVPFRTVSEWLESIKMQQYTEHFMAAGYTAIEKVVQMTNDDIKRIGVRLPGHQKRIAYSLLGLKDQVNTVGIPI
Chain of Ribosomal protein S6 kinase beta-2 (Homo sapiens) (Q9UBS0 whole entry): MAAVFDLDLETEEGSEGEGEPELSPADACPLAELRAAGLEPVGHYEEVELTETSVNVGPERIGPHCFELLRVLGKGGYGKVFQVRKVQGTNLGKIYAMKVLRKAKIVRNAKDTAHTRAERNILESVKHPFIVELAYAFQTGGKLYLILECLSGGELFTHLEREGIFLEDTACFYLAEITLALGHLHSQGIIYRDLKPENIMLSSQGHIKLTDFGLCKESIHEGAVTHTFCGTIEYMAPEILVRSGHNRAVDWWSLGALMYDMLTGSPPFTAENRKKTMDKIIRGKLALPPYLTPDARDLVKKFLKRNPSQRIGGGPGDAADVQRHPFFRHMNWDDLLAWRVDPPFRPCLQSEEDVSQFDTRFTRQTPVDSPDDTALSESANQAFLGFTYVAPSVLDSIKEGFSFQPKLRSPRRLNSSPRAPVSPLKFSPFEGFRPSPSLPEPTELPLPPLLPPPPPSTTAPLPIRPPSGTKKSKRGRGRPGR
Chain of Leukocyte tyrosine kinase receptor (P29376 whole entry): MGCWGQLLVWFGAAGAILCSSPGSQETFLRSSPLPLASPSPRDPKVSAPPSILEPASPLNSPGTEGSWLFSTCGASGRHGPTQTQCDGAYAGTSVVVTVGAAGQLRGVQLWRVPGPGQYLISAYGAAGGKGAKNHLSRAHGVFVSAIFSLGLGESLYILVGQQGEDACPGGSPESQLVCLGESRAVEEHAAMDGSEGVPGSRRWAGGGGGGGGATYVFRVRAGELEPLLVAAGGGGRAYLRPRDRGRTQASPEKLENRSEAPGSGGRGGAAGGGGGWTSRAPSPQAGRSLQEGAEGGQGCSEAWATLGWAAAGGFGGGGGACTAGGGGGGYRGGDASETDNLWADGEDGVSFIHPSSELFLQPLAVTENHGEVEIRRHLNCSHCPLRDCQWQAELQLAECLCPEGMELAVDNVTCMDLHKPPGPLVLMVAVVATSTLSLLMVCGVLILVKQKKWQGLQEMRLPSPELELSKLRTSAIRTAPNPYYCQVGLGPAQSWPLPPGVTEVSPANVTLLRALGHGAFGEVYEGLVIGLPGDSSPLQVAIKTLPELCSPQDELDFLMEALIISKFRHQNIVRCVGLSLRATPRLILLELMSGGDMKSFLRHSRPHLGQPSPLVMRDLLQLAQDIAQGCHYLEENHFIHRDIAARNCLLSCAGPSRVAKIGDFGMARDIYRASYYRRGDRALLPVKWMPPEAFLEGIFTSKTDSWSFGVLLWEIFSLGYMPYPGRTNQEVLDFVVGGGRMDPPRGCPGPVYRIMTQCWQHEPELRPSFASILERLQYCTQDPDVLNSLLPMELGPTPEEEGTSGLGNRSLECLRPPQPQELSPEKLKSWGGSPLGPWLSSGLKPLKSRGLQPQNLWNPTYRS
Chain of Serine/threonine-protein kinase N1 (Q16512 2-942 limits assumed): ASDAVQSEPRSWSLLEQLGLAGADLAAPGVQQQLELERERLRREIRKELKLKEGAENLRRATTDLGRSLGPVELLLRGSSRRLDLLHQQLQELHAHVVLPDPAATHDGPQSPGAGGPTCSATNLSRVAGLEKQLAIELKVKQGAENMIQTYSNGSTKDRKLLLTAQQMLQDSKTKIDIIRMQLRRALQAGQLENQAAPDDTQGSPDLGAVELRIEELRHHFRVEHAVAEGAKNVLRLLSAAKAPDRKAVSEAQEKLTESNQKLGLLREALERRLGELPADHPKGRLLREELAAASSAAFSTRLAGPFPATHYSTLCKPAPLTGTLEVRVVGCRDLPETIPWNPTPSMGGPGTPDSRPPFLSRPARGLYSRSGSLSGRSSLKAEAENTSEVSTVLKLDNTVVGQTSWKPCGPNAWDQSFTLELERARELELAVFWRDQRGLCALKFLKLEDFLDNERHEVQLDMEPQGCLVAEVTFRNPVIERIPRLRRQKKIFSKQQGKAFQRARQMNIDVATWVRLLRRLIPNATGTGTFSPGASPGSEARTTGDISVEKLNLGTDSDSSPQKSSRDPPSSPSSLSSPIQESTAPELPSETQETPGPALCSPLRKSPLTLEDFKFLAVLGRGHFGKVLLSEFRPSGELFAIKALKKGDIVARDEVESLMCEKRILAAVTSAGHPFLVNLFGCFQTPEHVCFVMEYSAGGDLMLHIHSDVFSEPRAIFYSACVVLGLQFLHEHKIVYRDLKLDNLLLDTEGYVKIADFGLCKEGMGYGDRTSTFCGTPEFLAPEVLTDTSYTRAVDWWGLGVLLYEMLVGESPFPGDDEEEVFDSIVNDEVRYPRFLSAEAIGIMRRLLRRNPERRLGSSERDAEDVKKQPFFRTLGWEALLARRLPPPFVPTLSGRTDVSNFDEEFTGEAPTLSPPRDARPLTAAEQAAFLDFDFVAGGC
Chain of LIM domain kinase 1 (Homo sapiens) (P53667 whole entry, looked up, the tested form may be a part): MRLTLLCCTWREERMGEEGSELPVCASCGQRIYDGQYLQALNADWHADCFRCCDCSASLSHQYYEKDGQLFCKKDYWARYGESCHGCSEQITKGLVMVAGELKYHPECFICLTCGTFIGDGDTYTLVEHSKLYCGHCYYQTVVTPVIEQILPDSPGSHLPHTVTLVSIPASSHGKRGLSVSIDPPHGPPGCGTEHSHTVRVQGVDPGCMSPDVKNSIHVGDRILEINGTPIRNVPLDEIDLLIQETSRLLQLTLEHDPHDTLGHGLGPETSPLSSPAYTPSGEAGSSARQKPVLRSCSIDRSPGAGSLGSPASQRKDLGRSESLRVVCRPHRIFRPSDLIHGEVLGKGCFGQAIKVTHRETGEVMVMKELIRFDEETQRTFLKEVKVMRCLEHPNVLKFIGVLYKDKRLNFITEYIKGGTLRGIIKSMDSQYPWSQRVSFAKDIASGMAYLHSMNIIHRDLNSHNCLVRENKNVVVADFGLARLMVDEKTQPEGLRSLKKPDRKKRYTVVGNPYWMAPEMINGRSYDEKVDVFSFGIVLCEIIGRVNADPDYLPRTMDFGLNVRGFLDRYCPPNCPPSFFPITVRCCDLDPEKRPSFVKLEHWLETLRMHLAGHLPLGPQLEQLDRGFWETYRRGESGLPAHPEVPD
Chain of G protein-coupled receptor kinase 5 (P34947 whole entry, looked up): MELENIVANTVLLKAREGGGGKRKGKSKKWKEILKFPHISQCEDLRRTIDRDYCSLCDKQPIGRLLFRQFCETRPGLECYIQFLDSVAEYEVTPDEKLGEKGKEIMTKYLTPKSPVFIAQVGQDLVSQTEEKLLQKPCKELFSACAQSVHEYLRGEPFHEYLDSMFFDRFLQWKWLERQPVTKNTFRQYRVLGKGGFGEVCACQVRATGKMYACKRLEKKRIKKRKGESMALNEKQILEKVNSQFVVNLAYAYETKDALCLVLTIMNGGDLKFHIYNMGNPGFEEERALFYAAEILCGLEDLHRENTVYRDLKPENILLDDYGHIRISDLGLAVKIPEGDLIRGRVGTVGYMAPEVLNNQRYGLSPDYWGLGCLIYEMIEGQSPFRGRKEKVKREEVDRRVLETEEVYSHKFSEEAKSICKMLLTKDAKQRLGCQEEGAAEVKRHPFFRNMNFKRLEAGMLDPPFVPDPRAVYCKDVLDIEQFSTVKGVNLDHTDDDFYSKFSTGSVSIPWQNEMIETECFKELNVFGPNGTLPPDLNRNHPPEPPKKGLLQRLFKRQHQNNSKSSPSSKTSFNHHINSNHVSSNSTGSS
Chain of Acetylcholine receptor subunit alpha (P02708 whole entry): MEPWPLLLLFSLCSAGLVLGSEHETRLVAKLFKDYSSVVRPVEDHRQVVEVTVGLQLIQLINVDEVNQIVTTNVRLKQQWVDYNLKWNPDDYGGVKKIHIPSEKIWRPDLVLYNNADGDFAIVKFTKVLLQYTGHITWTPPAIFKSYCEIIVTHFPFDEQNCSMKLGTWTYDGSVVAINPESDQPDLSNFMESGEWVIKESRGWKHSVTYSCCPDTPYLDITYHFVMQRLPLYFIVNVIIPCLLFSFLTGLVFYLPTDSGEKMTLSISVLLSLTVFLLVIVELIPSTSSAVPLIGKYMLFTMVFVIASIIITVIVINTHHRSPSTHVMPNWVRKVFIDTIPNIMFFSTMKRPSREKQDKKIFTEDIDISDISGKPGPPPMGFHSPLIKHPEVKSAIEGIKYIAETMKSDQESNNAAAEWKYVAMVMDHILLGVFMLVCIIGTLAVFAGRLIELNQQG

COc1cc(N(C)c2ccnc3ccc(C(F)(F)F)cc23)cc(OC)c1OC
% binding [1]: 81%

CCC(=O)N1CCN(c2ccc(-n3c(=O)ccc4cnc5ccc(-c6cnc7ccccc7c6)cc5c43)cc2C(F)(F)F)CC1
% of control [2]: 15%

C=CC(=O)Nc1cccc(C(=O)Nc2ccc(Nc3cc(-c4[nH]c(SC)nc4C)ccn3)cc2)c1
% of control ([3]; at 1 µM): 92% | % of control ([3]; at 5 µM): 81% | % of control ([4]; at 1 µM): 87% | % of control ([4]; at 5 µM): 79%

Nc1cnc(N2CCc3cc(S(=O)(=O)Nc4c(F)cc(Cl)cc4F)cc(N4CCCC4=O)c32)nc1 [TP-020n]
% of control [5]: 100% | % of control [6]: 98%

CC(=O)Nc1cccc(-n2c(=O)n(C3CC3)c(=O)c3c(Nc4ccc(I)cc4F)n(C)c(=O)c(C)c32)c1
% of control [7]: 114%

CCc1ccccc1C(=O)Nc1n[nH]c2c(C)c(F)c(C3C(C#N)=C(C)N(C)C(C)=C3C#N)cc12 [BAY-3827]
% of control [8]: 11%

CC[C@@H]1[C@H](F)C(=O)N[C@@H]1COc1nccc2cc(C(N)=O)c(OC)cc12 [ZIMLOVISERTIB]
% of inhibition [9]: 0.578% | % of inhibition [10]: 2.66%

COc1cc(C(=O)N2CC[C@@H](O)[C@@H](N)C2)cc2nc(-c3cc4ccccc4n3CC3CC3)n(C)c12
pXC50 [11]: 4.9 M | pXC50 [12]: 5.8 M

CNC(=O)Nc1ccc(-c2nc(N3CC4CCC(C3)O4)c3cnn(C4CCC5(CC4)OCCO5)c3n2)cc1
% of control [13]: 68%

N#Cc1cccc(-c2c[nH]c3ncnc(N4CCOCC4)c23)c1
% of control [14]: 65%
